The CheMixHub ionic liquid set

Experiment: xn = mol fraction of the nth substance listed

CCC(=O)[O-].C[N+](C)(C)CCO + CCCO + O
100 kPa, x1 = 0.00408, x2 = 0.5431
Settings | viscosity [mPa·s]
288.15 K | 3.537
298.15 K | 2.571
308.15 K | 1.931

CCCC[n+]1ccn(C)c1.[Br-] + CCCOCCO
viscosity [mPa·s], 100 kPa
Settings | x1 = 0.1001 | x1 = 0.2003 | x1 = 0.2994 | x1 = 0.4 | x1 = 0.5002 | x1 = 0.6002 | x1 = 0.701 | x1 = 0.7969 | x1 = 0.9003 | x1 = 1
298.15 K | 15.5 | 50 | 100 | 152 | 204 | 270 | 378 | 560 | 910 | 1451
303.15 K | 10.3 | 28.9 | 53.7 | 81.1 | 110 | 148 | 206 | 305 | 503 | 837
308.15 K | 7.54 | 19.1 | 35.1 | 52 | 69.9 | 92.1 | 126 | 180 | 293 | 506
313.15 K | 6 | 14.5 | 25.9 | 37 | 48.8 | 61.7 | 81.8 | 114 | 184 | 330

CS(C)=O + CCC[N+]1(C)CCCC1.O=S(=O)([N-]S(=O)(=O)C(F)(F)F)C(F)(F)F
101 kPa, x2 = 0
Settings | viscosity [mPa·s]
298.15 K | 2.118
308.15 K | 1.758
318.15 K | 1.489
328.15 K | 1.28
338.15 K | 1.116
348.15 K | 0.983
358.15 K | 0.874

COS(=O)(=O)[O-].Cn1cc[n+](C)c1 + CCO
Settings | viscosity [mPa·s]
328.15 K, 100 kPa, x2 = 0.945 | 0.96

CCCC[n+]1ccn(C)c1.[Br-] + CCOCCO
viscosity [mPa·s], 100 kPa
Settings | x1 = 0.1002 | x1 = 0.2001 | x1 = 0.3007 | x1 = 0.3992 | x1 = 0.5001 | x1 = 0.5986 | x1 = 0.7001 | x1 = 0.8005 | x1 = 0.9002 | x1 = 1
298.15 K | 12.5 | 42.5 | 88.9 | 139 | 191 | 253 | 356 | 541 | 880 | 1451
303.15 K | 8.68 | 25.6 | 51.1 | 78.5 | 108 | 142 | 197 | 295 | 480 | 837
308.15 K | 6.44 | 17.4 | 32.8 | 50 | 67 | 87.1 | 117 | 171 | 278 | 506
313.15 K | 5.02 | 12.5 | 23 | 34.3 | 45.3 | 58.1 | 75.6 | 108 | 171 | 330

COS(=O)(=O)[O-].Cn1cc[n+](C)c1 + CCOCCO
viscosity [mPa·s], 101 kPa
Settings | x1 = 0.0009004 | x1 = 0.002248 | x1 = 0.003592 | x1 = 0.004932 | x1 = 0.006269 | x1 = 0.007602
293.15 K | 2.1 | 2.12 | 2.14 | 2.16 | 2.18 | 2.21
303.15 K | 1.64 | 1.66 | 1.68 | 1.71 | 1.73 | 1.75
313.15 K | 1.27 | 1.29 | 1.32 | 1.34 | 1.37 | 1.39
